Test results taken from PubChem BioAssay (NCI).
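Cultured in 96-well plates, cells were exposed to test compound for 48 hours across five concentrations. GI50 is the concentration that inhibits growth by half. TGI: concentration producing complete growth inhibition.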

What was measured:
Experiment in all cases: NCI tumour cell line growth inhibition, 48 h
[1] = test system: OVCAR-4 ovarian
[2] = test system: SNB-75 CNS
[3] = test system: SW-620 colon
[4] = test system: OVCAR-8 ovarian
[5] = test system: HOP-62 NSCLC
[6] = test system: M14 melanoma
[7] = test system: SK-MEL-2 melanoma
[8] = test system: SN12C renal
[9] = test system: PC-3 prostate
[10] = test system: DU-145 prostate

Row | Structure (SMILES) | TGI [1] | TGI [2] | TGI [3] | TGI [4] | TGI [5] | TGI [6] | TGI [7] | TGI [8] | GI50 [1] | GI50 [2] | GI50 [7] | GI50 [9] | TGI [9] | GI50 [3] | GI50 [4] | GI50 [5] | GI50 [6] | GI50 [10] | TGI [10] | GI50 [8]
1 | COC(=O)C1=C(C(=O)OC)C2C=CC1C1C(Cl)=C(Cl)C21 (stereo not drawn) | > 100 µM | > 100 µM | > 100 µM | > 100 µM | > 100 µM | > 100 µM | > 100 µM | > 100 µM | – | – | – | – | – | – | – | – | – | – | – | –
2 | O=C1OCc2c1cc1ccc(O)c(OC3OC(CO)C(O)C(O)C3O)c1c2-c1ccc2c(c1)OCO2 (stereo not drawn) | > 100 µM | > 100 µM | > 100 µM | > 100 µM | > 100 µM | > 100 µM | > 100 µM | > 100 µM | 56.2 µM | 55.2 µM | 33.5 µM | – | – | – | – | – | – | – | – | –
3 | O=C1/C(=C/c2ccc(Cl)cc2Cl)N=C(c2ccccc2)N1Cc1ccco1 | 50 µM | – | > 100 µM | 48.4 µM | 38.9 µM | > 100 µM | 48.5 µM | 36.1 µM | 21.2 µM | – | 15.8 µM | 30.8 µM | 93.9 µM | 46 µM | 20.5 µM | 18.4 µM | 29.1 µM | 21.1 µM | 51 µM | 18.7 µM
4 | OCCC1(O)CCC(O)CC1 (stereo not drawn) | > 100 µM | > 100 µM | > 100 µM | > 100 µM | > 100 µM | > 100 µM | > 100 µM | – | – | – | – | – | – | – | – | – | – | – | – | –
5 | COc1cc2c3c(n(C)c(=O)c2cc1OC)-c1cc2c(cc1/C3=C\CCCN1C(=O)c3ccccc3C1=O)OCO2 | > 40 µM | > 40 µM | > 40 µM | > 40 µM | > 40 µM | > 40 µM | – | – | > 40 µM | 27.8 µM | – | 4.79 µM | 24.7 µM | 13.5 µM | 23.8 µM | 19.2 µM | > 40 µM | 6.73 µM | > 40 µM | –
6 | CC(C)CC(=O)[O-].CC(C)CC(=O)[O-].N.N.N.N.[Co+3].[O-][Cl+3]([O-])([O-])[O-] | > 100 µM | > 100 µM | > 100 µM | > 100 µM | > 100 µM | > 100 µM | > 100 µM | > 100 µM | > 100 µM | > 100 µM | > 100 µM | – | – | > 100 µM | > 100 µM | > 100 µM | > 100 µM | – | – | > 100 µM
7 | CCCCCCCCCCCCCC(=O)OC1CC(=O)OC1CO (stereo not drawn) | > 100 µM | > 100 µM | > 100 µM | > 100 µM | > 100 µM | 39.7 µM | > 100 µM | > 100 µM | – | – | – | – | – | – | – | – | – | – | – | –
8 | Clc1ccc(C2N3CCCCC3[C@@H]3c4[nH]c5ccccc5c4CCN23)cc1 (stereo partly drawn) | > 100 µM | > 100 µM | > 100 µM | > 100 µM | > 100 µM | > 100 µM | > 100 µM | > 100 µM | – | – | – | – | – | – | – | – | – | – | – | –
9 | CC12CC[C@@H](C(C)(C)O)C1[C@@H](O)CC1(C)C2CCC2[C@@]3(C)CC[C@H](O)C(C)(C)C3C(O)C[C@]21C (stereo partly drawn) | 32.6 µM | – | 39 µM | 41.2 µM | – | > 100 µM | 36.8 µM | 29.9 µM | – | – | – | – | – | – | – | – | – | – | – | –
